Test results published in paper PMC11671585, “Deciphering the molecular basis of lipoprotein recognition and transport by LolCDE” (Signal Transduction and Targeted Therapy, 2024).

Biological target: T1, LolCDE (LolCD^E171QE) (Escherichia coli, UniProt P75957, E171Q)
T1 construct: gene lolD; full complex LolC, LolD dimer, LolE; 8xHis tag at C terminus of LolD; expressed in E. coli C43 (DE3); reconstituted in MSP1D1 nanodiscs with E. coli polar lipids; with Lipoprotein-releasing system transmembrane protein LolC; Lipoprotein-releasing system transmembrane protein LolE
Assay: cryo-EM structure, […] Å, nanodiscs
Format: binding
Conditions: endogenous ATP with Mg2+, no nucleotide added; both catalytic sites of the LolD dimer; catalytically inactive mutant; pH 7.8

T1 sequence (P75957 whole entry E171Q): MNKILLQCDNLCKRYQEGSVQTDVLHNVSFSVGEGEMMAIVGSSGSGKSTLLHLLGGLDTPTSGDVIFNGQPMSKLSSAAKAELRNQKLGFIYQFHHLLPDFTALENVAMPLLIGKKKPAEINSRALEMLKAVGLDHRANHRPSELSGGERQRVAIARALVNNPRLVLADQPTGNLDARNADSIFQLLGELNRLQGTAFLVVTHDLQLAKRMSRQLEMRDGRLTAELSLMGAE
T1 sequence (P75958 2-414, further chain): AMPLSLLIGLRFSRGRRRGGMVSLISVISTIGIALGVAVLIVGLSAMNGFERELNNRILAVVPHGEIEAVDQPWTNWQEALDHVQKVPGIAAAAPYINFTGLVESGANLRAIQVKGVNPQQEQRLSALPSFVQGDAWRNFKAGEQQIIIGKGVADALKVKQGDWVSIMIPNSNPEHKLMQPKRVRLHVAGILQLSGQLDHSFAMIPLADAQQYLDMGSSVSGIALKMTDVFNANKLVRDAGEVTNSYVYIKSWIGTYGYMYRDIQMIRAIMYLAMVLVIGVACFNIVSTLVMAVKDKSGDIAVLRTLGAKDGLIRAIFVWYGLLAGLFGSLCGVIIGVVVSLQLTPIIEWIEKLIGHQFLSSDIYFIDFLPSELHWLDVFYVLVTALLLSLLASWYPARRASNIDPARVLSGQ
T1 sequence (P0ADC3 whole entry, further chain): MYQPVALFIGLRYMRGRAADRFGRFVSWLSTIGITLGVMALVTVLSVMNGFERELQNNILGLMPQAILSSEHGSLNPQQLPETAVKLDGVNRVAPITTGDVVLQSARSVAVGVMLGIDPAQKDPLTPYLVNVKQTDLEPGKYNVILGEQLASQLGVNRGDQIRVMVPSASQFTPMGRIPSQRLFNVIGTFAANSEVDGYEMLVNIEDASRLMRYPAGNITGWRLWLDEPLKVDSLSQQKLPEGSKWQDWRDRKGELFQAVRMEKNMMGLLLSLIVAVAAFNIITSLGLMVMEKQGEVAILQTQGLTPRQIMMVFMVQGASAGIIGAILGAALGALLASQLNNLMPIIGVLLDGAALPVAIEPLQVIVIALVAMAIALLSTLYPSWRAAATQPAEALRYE

Compound: Nc1ncnc2c1ncn2[C@@H]1O[C@H](COP(=O)(O)OP(=O)(O)OP(=O)(O)O)[C@@H](O)[C@H]1O [ATP]
- cryo-EM structure, 3.2 Å, nanodiscs: additional cryo-EM densities were observed in the catalytic pockets of LolD, which were identified as ATP
